Measured values reported in US20240208972A1, “LRRK2 INHIBITORS AND USES THEREOF” (NEURON23, INC., priority 2022, published 2024).

What was measured:
Caco-2 cells = assay: Caco-2 bidirectional permeability; assay type: in vitro ADME; settings: for Caco-2 A2B (10^−6 cm/s): A to B; for Caco-2 A2B (10^−6 cm/s) / Caco-2 B2A (10^−6 cm/s): HBSS pH 7.4, 2 hours; for Caco-2 B2A (10^−6 cm/s): B to A; for Caco-2 ER: Efflux Ratio=Papp (BA)/Papp (AB)
Procedure: The compounds disclosed herein were tested in vitro on CaCo2 cell penetration according to the following procedures.
Test compounds were prepared in dimethyl sulfoxide (DMSO).
Caco-2 cells purchased from ATCC were seeded onto […] (PET) in 96-well Corning Insert plates at 1×10^5 cells/cm^2. The media were refreshed every 4 to 5 days until the 21st to 28th day for confluent cell monolayer formation.
Experiments were run in duplicate using a HBSS transport buffer containing 10 mM HEPES at pH 7.4. The test article TEST COMPOUND was tested bi-directionally at […] concentrations, the control compound digoxin was tested bi-directionally at 10 μM, and nadolol and metoprolol were tested at 2.0 μM in the A to B direction. Final DMSO concentrations were adjusted to less than 1%. The plates were incubated for 2 hours in a CO2 incubator at 37±1° C. with 5% CO2 at saturated humidity without shaking. Following incubation, samples were mixed with acetonitrile containing internal standard and centrifuged at 3200×g for 10 minutes. Then 200 μL of supernatant was taken from all samples. For TEST COMPOUND and digoxin, the supernatant was diluted with 200 μL of ultra-pure water and for nadolol and metoprolol, the supernatant was diluted with 600 μL of ultra-pure water. All samples were analyzed by LC-MS/MS. Concentrations of TEST COMPOUND and control compounds were determined in starting solutions, donor well solutions, and receiver well solutions using peak area ratios (PAR) of analyte to internal standard. After the transport assay, a lucifer yellow rejection assay was run to determine the Caco-2 cell monolayer integrity.
The apparent permeability (Papp), the % recovery and the efflux ratio were calculated as follows: • 1. Papp=(dCr/dt)×Vr/(A×C0) • 2. % Recovery=100×[(Vr×Cr)+(Vd×Cd)]/(Vd×C0) • 3. Efflux Ratio=Papp (BA)/Papp (AB) • Where: • dCr/dt is the slope of the cumulative concentration in the receiver compartment versus time (mM/s). • Vr and Vd is the volume in the receiver and donor compartments (0.075 mL on the apical side, 0.25 mL on the basolateral side), respectively. • A is the surface area of the cell monolayer (0.0804 cm^2). • C0 is the measured donor concentrations (μM) at the beginning of the experiment. • Cd and Cr are the final measured concentrations in the donor and receiver compartments, respectively.
The cell monolayer tight junction integrity assay was conducted after completion of the transport assay by adding Lucifer Yellow (LY) to the apical wells at 100 μM and incubating the cells for 30 minutes. Following incubation, tight junction integrity was assessed from LY concentrations in the basolateral compartment (receiver well) and the apical compartment (donor well) using fluorescence detection as follows: […]

[1] = target: T1, wt human LRRK2, catalytic site (Homo sapiens, UniProt Q5S007); assay: TR-FRET LanthaScreen Tb Kinase Activity Assay, LRRK2 kinase inhibition; assay type: biochemical; settings: 2 nM wt human LRRK2, 400 nM peptide, 38 μM ATP
T1 construct: wt human LRRK2, catalytic site, catalytic site (ThermoFisher/USA); purchased ThermoFisher
Procedure: The compounds disclosed herein were tested for their inhibitory effect on LRRK2 kinase according to the following procedures.
The protocol for basic TR-FRET LanthaScreen Tb Kinase Activity Assay inhibitor studies is as follows. LanthaScreen Kinase Activity Assays (ThermoFisher/USA) to evaluate inhibitors were performed by addition of 100 nL of test compound in the corresponding DMSO dilutions/5 L of kinase/fluorescein-ERM(LRRKtide) peptide mixture, Compound & kinase were pre-incubated for 15 minutes, then 5 μl of ATP into 384 well small volume plates. After incubation for 120 minutes at room temperature, the detection reagents containing Tb-anti-pLRRKtide antibody were added to monitor the phosphrylation level of peptide. Then, after 60 min minutes incubation at room temperature plates were read in Envision. Data analysis of emission ratios was according to the LanthaScreen Tb Kinase Activity Assay protocol.
Kinase and assay components were adjusted to final concentrations according to the kit protocol. For LRRK2: 2 nM wt human LRRK2, catalytic site, catalytic site (ThermoFisher/USA), 400 nM peptide, 38 μM ATP in 1× Kinase Buffer A.
Basic protocol for TR-FRET LanthaScreen Tb Kinase Activity Assay inhibitor studies involved two steps: Enzymatic step: Addition of 100 nl of test compound in corresponding DMSO dilutions, 5 μl of kinase/substrate mixture, 5 μl of ATP into 384 well small volume plates. Incubation for 120 minutes at room temperature.
Detection step: Addition of 10 μl EDTA & antibody, read plate after 60 minutes. Data analysis of emission ratios according to KinEASE assay protocol.
Kinase and assay components were adjusted to final concentrations according to the kit protocol.

[2] = Human hepatocyte stability, in vitro h-Hept CLpredict; assay type: in vitro ADME; settings: cryopreserved hepatocytes, predicted hepatic clearance, cells without asterisk, read-out: hHep Cl
Procedure: The compounds disclosed herein were tested in vitro on human hepatocyte for in vitro h-Hept CLpredict according to the following procedures. • 1. Compound sock solutions were prepared by dissolving test compound and positive control in dimethyl sulfoxide (DMSO) at a concentration of 10 mM. Stock solutions were then diluted to 100 μM solutions by combining 198 μL of 50% acetonitrile/50% water with 2 μL of the 10 mM stock stock in separate conical tubes. • 2. Cryopreserved hepatocytes were prepared as follows: Incubation medium (William's E Medium supplemented with GlutaMAX) and hepatocyte thawing medium were placed in a 37° C. water bath and allowed to warm for at least 15 minutes prior to use. Cryopreserved hepatocytes were removed from storage, ensuring that vials remained at cryogenic temperatures until thawed. Cells were thawed by placing the vials in a 37° C. water bath and gently shaking the vials for 2 minutes. After thawing was completed, vials were sprayed with 70% ethanol and transferred to a biosafety cabinet. Hepatocytes were transferred into 50 mL conical tube containing thawing medium using wide-bore pipette tips. Tubes were placed into a centrifuge and spun at 100 g for 10 minutes. Then thawing medium was aspirated and hepatocytes were resuspended in enough incubation medium to yield−1.5×10^6 cells/mL. Cells were counted using acridine orange and propidium iodide (AO/PI) staining, and the viable cell density was determined. Cells were diluted with incubation medium to a working cell density of 0.5×10^6 viable cells/mL. • 3. To determine hepatocyte stability, 198 μL of hepatocytes were transferred into each well of a 96-well non-coated plate. Plates were placed in an incubator to allow the hepatocytes to warm for 10 minutes. • 4. The reaction was started by transferring 2 μL of the 100 μM test compound or positive control solution into respective wells of the 96-well non-coated plates. Plates were returned to the incubator until 25 μL aliquots of well contents were sampled at time points of 0, 15, 30, 60, 90 and 120 minutes. The aliquots were then mixed with 6 volumes (150 μL) of acetonitrile containing internal standard, IS (100 nM alprazolam, 200 nM caffeine and 100 nM tolbutamide) to terminate the reaction and vortexed for 5 minutes. After centrifuging the samples for 45 minutes at 3,220 g, aliquots of 100 μL of the supernatant were taken and diluted with 100 μL of ultra-pure water. The mixture was used for LC/MS/MS analysis. All incubations were performed in duplicate.
All calculations were carried out using Microsoft Excel. Peak area ratios (PAR) were determined from extracted ion chromatograms. The in vitro half-life (t1/2) of parent compound was determined by regression analysis of the percent parent disappearance vs. time curve as follows:
The in vitro half-life (in vitro t1/2) was determined from the slope value:
Conversion of the in vitro t1/2 (in minutes) into the in vitro intrinsic clearance (in vitro CLint, in μL/min/1×10^6 cells) was done using the following equation (mean of duplicate determinations): […]
The scaled-up intrinsic clearance (CLint, mL/min/kg), predicted hepatic clearance (CLH, mL/min/kg) and hepatic extraction ratio (ER) were calculated using the following equations:
CLint=(0.693/t1/2)*(1/(hepatocyte concentration (0.5*10^6 cells/mL))*scaling factors (Table (A)
• CLHept-predict=(QH*Scaled-up CLint*fub)/(QH+Scaled-up CLint*fub) • ER=CLH/QH • Where: • V=incubation volume (0.2 mL) • N=number of hepatocytes per well (0.1*10^6 cells) • QH=hepatic blood flow (mL/min/kg) (Table (A)
• fub=fraction of unbound drug in plasma, assumed to be 1 • Values used for calculation of the predicted hepatic clearance parameters data processing rules are outlined in the following tables (A) (B)

T1 sequence (Q5S007 1879-2138 limits assumed): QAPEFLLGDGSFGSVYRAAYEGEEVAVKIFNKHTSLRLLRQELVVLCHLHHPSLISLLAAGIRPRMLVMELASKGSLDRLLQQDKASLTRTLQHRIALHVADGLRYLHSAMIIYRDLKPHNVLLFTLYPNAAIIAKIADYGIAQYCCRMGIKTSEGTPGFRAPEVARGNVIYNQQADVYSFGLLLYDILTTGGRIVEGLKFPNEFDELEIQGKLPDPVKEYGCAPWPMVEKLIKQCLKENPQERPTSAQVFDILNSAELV

SMILES | Caco-2 A2B (10^−6 cm/s) (Caco-2 cells) | Caco-2 B2A (10^−6 cm/s) (Caco-2 cells) | Caco-2 ER (Caco-2 cells) | IC50 [1] [nM] | CLhep predicted at 1 µM [2] [mL/min/kg]
Cc1n[nH]c2c1N=C(c1c(F)cccc1F)Nc1cnc(NCc3ccc(F)cc3F)cc1-2 [Example 16, N-(2,4-difluorobenzyl)-5-(2,6-difluorophenyl)-3-methyl-1,6-dihydropyrazolo[4,3-d]pyrido[4,3-f][1,3]diazepin-9-amine] | H (H (High permeability)”: A2B (B2A)>5) | H (H (High permeability)”: A2B (B2A)>5) | N (N (Non-substrate)”: ER<2.5) | < 2 | 6.3 to 14.7
Cc1n[nH]c2c1N=C(c1c(F)cccc1F)Nc1cnc(N3CCC(F)CC3)cc1-2 [Example 3, 8-(2,6-difluorophenyl)-13-(4-fluoro-1-piperidyl)-5-methyl-3,4,7,9,12-pentazatricyclo[8.4.0.02,6]tetradeca-1(10),2(6),4,7,11,13-hexaene] | H (H (High permeability)”: A2B (B2A)>5) | H (H (High permeability)”: A2B (B2A)>5) | N (N (Non-substrate)”: ER<2.5) | < 2 | 6.3 to 14.7
Cc1ccc(-c2ccc3c(c2)-c2[nH]nc(C)c2N=C(c2c(F)cccc2F)N3)cn1 [Example 53, 5-(2,6-difluorophenyl)-3-methyl-9-(6-methyl-3-pyridyl)-1,6-dihydropyrazolo[4,3-d][1,3]benzodiazepine] | H (H (High permeability)”: A2B (B2A)>5) | H (H (High permeability)”: A2B (B2A)>5) | N (N (Non-substrate)”: ER<2.5) | < 2 | 6.3 to 14.7
Cc1n[nH]c2c1N=C(c1c(F)cccc1F)Nc1c-2cc(N2CCOCC2)nc1C(F)F [Example 44, 4-(7-(difluoromethyl)-5-(2,6-difluorophenyl)-3-methyl-1,6-dihydropyrazolo[4,3-d]pyrido[4,3-f][1,3]diazepin-9-yl)morpholine] | H (H (High permeability)”: A2B (B2A)>5) | H (H (High permeability)”: A2B (B2A)>5) | N (N (Non-substrate)”: ER<2.5) | < 2 | 6.3 to 14.7
Cc1n[nH]c2c1N=C(c1c(F)cccc1F)Nc1cnc(N3CC(F)(F)C3)cc1-2 [Example 2, 13-(3,3-difluoroazetidin-1-yl)-8-(2,6-difluorophenyl)-5-methyl-3,4,7,9,12-pentazatricyclo[8.4.0.02,6]tetradeca-1(10),2(6),4,7,11,13-hexaene] | H (H (High permeability)”: A2B (B2A)>5) | H (H (High permeability)”: A2B (B2A)>5) | N (N (Non-substrate)”: ER<2.5) | < 2 | 6.3 to 14.7
COC[C@@H]1CN(c2cc3c(c(C)n2)NC(c2c(F)cccc2F)=Nc2c(C)n[nH]c2-3)CCO1 [Example 46, (2S)-4-[8-(2,6-difluorophenyl)-5,11-dimethyl-3,4,7,9,12-pentazatricyclo[8.4.0.02,6]tetradeca-1(10),2(6),4,7,11,13-hexaen-13-yl]-2-(methoxymethyl)morpholine] | H (H (High permeability)”: A2B (B2A)>5) | H (H (High permeability)”: A2B (B2A)>5) | N (N (Non-substrate)”: ER<2.5) | < 2 | < 6.3
Cc1n[nH]c2c1N=C(c1c(F)cccc1F)Nc1cnc(-n3ccc(C#N)n3)cc1-2 [Example 57, 1-[8-(2,6-difluorophenyl)-5-methyl-3,4,7,9,12-pentazatricyclo [8.4.0.02,6]tetradeca-1(10),2(6),4,7,11,13-hexaen-13-yl]pyrazole-3-carbonitrile] | H (H (High permeability)”: A2B (B2A)>5) | H (H (High permeability)”: A2B (B2A)>5) | N (N (Non-substrate)”: ER<2.5) | 2 to 100 | 6.3 to 14.7
